Experimental data published in ChEMBL document CHEMBL1201862, “PubChem BioAssay data set” (2004).
Active and inactive are the calls of the source.

Key:
[1] = HEp-2 cell cytotoxicity, dose response, cytotoxicity control for RSV inhibitor project, HTS (AID 2410); assay type: functional; details: human respiratory syncytial virus
Leucine aminopeptidase = molecular target: T1, Leucine aminopeptidase (Plasmodium falciparum 3D7, UniProt Q8IL11); experiment: P. falciparum M17LAP inhibitors, primary screen, biochemical, fluorogenic H-Leu-NHMec substrate, 1536-well (AID 1619); assay type: functional
T1 sequence (Q8IL11 whole entry): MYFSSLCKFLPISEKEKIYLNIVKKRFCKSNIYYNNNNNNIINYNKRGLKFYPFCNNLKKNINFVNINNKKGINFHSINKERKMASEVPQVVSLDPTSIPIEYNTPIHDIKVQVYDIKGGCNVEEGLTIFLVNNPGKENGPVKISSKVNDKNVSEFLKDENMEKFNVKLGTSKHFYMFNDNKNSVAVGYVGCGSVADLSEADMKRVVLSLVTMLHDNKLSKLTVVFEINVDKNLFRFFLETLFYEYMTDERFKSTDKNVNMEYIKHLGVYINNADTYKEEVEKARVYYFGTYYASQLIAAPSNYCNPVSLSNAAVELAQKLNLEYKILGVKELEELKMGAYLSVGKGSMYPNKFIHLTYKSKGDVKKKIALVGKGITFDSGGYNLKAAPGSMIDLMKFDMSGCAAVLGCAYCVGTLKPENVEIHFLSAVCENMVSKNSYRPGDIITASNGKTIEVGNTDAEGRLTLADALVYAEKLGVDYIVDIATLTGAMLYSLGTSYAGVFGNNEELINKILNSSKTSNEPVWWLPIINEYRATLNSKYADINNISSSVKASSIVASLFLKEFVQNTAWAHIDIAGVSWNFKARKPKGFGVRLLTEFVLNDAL

[2] = molecular target: Peroxisome proliferator-activated receptor gamma/Nuclear receptor coactivator 3 (Homo sapiens, UniProt P37231); experiment: TR-FRET dose response biochemical High Throughput Screening assay for agonists of the steroid receptor coactivator 3 (SRC-3) recruitment by the peroxisome proliferator-activated receptor gamma (PPAR gamma): non-selective agonists. [Related pubchem assays: 1301 (Confirmation screen.), 1048 (Primary screen.)]; assay type: functional
[3] = molecular target: Peroxisome proliferator-activated receptor gamma/Nuclear receptor coactivator 2 (Homo sapiens, UniProt P37231); experiment: (§1) TR-FRET dose response biochemical High Throughput Screening assay for agonists of the steroid receptor coactivator 2 (SRC-2) recruitment by the peroxisome proliferator-activated receptor gamma (PPAR gamma): non-selective agonists. [Related pubchem assays: 1297, 1032 ]; assay type: functional
[4] = molecular target: Peroxisome proliferator-activated receptor gamma/Nuclear receptor coactivator 1 (Homo sapiens, UniProt P37231); experiment: as §1, with “1 (SRC-1)” for “2 (SRC-2)”, “assays (depositor defined):AID1300, AID1808, AID504735, AID631]” for “assays: 1297, 1032 ]”; assay type: protein assay
[5] = MC4R antagonists, dose response, counter-screen for LGR2 antagonist project, cell-based, plate reader, cherry pick (AID 743444); assay type: functional;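 note: transfected HEK 293 cells stimulated with alpha-MSH peptide; potency of inhibitors of the alpha-MSH evoked signal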
[6] = LGR2 antagonists, dose response, cell-based, HEK293, CRE-luciferase reporter, cherry pick, set 2 (AID 743343); assay type: functional;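 note: transfected cells were stimulated with diluted bursicon conditioned medium after compound addition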
[7] = molecular target: Glucose-6-phosphate 1-dehydrogenase (Homo sapiens, UniProt P11413); experiment: human G6PD enzyme inhibitors, dose response, selectivity assay for P. falciparum G6PD inhibitor project, biochemical, fluorescence (AID 504792); assay type: functional
[8] = A549 cell cytotoxicity, dose response, cytotoxicity control, plate reader, cherry-pick, antagonist series (AID 743412); assay type: functional, cell-based
[9] = growth suppression of PTEN-null colon cells, dose response, cell-based, HCT116 PTEN knockout (AID 1047); assay type: functional;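 note: HCT116 colon tumor cells with PTEN knocked out; cells exposed to compound for 60 hours before readout; potency for loss of cell viability measured by luminescence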
[10] = growth suppression of beta-catenin-knockout colon cells, dose response, cell-based, HCT116, human colon tumor (AID 1045); assay type: functional;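 note: HCT116 colon tumor cells with beta catenin knocked out; cells exposed to compound for 60 hours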
Protein RecA = molecular target: T2, Protein RecA (Mycobacterium tuberculosis, UniProt P9WHJ3); experiment: Fluorescence Cell-Free Homogeneous Dose Retest to Identify Inhibitors of RecA-Intein Splicing Activity. [Related pubchem assays (depositor defined):AID2097, AID2223, AID489010, AID492950]; assay type: functional
T2 sequence (P9WHJ3 whole entry): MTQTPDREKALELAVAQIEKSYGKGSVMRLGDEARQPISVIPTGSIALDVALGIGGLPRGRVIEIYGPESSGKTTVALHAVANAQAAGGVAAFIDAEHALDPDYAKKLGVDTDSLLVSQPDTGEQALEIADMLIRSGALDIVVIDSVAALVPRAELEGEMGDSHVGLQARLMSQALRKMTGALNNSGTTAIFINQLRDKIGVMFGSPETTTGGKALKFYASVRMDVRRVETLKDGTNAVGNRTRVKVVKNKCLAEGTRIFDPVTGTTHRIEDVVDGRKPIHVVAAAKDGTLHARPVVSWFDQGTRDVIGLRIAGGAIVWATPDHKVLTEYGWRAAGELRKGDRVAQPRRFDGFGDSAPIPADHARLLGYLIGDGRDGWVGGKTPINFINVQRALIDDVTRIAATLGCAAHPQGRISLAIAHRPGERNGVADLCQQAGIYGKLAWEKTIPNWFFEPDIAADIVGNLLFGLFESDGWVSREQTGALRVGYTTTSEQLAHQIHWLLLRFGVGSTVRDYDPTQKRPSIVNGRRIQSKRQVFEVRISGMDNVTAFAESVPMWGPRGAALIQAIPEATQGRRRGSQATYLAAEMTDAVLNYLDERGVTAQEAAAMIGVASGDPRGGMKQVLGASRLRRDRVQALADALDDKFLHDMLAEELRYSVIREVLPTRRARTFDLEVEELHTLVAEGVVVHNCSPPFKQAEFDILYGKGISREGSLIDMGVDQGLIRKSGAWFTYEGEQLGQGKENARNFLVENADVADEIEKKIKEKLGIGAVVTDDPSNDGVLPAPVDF

[11] = THP-1 cell cytotoxicity, dose response, cytotoxicity control for non-replicating M. tuberculosis project (AID 489025); assay type: functional
cells = assay type: functional
[12] = molecular target: T3, Replicative DNA helicase DnaB (Mycobacterium tuberculosis, UniProt P9WMR3); experiment: DnaB intein splicing inhibitors, dose response, biochemical, cell-free fluorescence (AID 449749); assay type: functional
T3 sequence (P9WMR3 whole entry): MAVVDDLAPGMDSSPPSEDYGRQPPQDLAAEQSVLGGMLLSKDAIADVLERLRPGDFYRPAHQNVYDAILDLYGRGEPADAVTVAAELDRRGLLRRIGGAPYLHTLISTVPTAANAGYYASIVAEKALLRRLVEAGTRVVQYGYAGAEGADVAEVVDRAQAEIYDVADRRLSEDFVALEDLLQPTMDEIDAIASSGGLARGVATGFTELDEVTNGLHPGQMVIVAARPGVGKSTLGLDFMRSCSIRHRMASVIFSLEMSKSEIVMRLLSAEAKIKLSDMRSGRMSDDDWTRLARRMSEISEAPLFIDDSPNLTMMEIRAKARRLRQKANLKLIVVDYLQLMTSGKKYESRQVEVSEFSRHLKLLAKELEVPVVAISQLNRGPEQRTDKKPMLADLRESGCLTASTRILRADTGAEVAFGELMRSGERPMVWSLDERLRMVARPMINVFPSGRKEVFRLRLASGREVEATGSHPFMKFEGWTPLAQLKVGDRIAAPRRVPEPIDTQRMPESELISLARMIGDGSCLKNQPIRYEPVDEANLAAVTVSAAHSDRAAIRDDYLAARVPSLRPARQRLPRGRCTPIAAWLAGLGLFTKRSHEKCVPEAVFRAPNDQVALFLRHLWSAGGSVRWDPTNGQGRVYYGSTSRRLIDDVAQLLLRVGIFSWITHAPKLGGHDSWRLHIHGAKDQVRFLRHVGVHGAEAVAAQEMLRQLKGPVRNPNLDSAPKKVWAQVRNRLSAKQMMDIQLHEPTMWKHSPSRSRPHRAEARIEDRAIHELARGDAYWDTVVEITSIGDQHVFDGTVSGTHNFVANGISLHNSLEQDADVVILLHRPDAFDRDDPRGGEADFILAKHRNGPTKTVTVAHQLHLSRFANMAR

BJ [13] = experiment: cytotoxicity toward BJ-TERT-LT-ST fibroblasts, dose response, cell-based, RAS-independent, luminescence (AID 1935); assay type: functional; details: Homo sapiens;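 note: BJ fibroblasts immortalized with TERT plus LT and ST oncogenes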
BJ [14] = experiment: cytotoxicity toward BJ-TERT fibroblasts, dose response, cell-based, RAS-independent, luminescence (AID 1933); assay type: functional; details: Homo sapiens
[15] = cytotoxicity toward DRD oncogenic fibroblasts, dose response, cell-based, non-viral oncogenic, luminescence (AID 1934); assay type: functional; details: Homo sapiens
[16] = Luminescence Cell-Based Dose Retest to Confirm Inhibitors of Cancer Stem Cells. [Related pubchem assays (depositor defined):AID2717, AID2721]; assay type: functional; details: Homo sapiens
BJ [17] = experiment: cells; assay type: functional, cell-based; details: Homo sapiens
Nonstructural protein 1 = Nonstructural protein 1 (Influenza A virus, UniProt Q194T2); assay type: functional, Influenza A virus (A/California/07/2009(H1N1))
[18] = molecular target: T4, High affinity choline transporter 1 (Homo sapiens, UniProt Q9GZV3); experiment: CHT inhibitors, dose response, cell-based, 5-point CRC, membrane potential dye (AID 504840); assay type: functional
T4 sequence (Q9GZV3 whole entry): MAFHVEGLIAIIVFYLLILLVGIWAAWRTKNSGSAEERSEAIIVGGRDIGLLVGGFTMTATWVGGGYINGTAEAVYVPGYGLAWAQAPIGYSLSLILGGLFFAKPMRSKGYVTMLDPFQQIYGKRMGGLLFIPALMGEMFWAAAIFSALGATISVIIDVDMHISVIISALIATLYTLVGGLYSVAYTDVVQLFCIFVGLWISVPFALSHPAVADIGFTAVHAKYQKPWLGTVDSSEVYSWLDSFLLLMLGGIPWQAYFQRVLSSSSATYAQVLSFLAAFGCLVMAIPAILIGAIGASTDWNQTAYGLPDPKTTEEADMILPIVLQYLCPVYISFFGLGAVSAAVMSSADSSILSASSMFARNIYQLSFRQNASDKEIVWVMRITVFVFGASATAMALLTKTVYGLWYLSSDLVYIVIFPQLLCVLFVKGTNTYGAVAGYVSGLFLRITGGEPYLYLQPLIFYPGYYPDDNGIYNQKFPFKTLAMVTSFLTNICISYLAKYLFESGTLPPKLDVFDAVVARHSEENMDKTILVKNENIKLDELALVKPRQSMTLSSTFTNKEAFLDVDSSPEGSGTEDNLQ

Chain of Peroxisome proliferator-activated receptor gamma/Nuclear receptor coactivator 1 (P37231 whole entry): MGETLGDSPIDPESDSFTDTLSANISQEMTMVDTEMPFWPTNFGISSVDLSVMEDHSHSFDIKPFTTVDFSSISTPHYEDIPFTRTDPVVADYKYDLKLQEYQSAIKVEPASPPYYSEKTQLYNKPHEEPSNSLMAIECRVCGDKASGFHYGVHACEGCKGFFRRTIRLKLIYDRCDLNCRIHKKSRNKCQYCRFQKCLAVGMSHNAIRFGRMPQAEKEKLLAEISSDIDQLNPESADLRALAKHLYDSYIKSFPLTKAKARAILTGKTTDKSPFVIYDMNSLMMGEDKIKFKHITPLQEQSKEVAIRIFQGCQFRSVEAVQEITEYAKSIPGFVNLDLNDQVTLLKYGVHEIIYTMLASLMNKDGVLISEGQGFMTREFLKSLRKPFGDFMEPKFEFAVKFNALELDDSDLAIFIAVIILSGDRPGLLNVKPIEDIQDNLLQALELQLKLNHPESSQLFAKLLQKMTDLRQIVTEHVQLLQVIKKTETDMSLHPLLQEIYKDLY
Chain of Peroxisome proliferator-activated receptor gamma/Nuclear receptor coactivator 1 (Q15788 whole entry, further chain): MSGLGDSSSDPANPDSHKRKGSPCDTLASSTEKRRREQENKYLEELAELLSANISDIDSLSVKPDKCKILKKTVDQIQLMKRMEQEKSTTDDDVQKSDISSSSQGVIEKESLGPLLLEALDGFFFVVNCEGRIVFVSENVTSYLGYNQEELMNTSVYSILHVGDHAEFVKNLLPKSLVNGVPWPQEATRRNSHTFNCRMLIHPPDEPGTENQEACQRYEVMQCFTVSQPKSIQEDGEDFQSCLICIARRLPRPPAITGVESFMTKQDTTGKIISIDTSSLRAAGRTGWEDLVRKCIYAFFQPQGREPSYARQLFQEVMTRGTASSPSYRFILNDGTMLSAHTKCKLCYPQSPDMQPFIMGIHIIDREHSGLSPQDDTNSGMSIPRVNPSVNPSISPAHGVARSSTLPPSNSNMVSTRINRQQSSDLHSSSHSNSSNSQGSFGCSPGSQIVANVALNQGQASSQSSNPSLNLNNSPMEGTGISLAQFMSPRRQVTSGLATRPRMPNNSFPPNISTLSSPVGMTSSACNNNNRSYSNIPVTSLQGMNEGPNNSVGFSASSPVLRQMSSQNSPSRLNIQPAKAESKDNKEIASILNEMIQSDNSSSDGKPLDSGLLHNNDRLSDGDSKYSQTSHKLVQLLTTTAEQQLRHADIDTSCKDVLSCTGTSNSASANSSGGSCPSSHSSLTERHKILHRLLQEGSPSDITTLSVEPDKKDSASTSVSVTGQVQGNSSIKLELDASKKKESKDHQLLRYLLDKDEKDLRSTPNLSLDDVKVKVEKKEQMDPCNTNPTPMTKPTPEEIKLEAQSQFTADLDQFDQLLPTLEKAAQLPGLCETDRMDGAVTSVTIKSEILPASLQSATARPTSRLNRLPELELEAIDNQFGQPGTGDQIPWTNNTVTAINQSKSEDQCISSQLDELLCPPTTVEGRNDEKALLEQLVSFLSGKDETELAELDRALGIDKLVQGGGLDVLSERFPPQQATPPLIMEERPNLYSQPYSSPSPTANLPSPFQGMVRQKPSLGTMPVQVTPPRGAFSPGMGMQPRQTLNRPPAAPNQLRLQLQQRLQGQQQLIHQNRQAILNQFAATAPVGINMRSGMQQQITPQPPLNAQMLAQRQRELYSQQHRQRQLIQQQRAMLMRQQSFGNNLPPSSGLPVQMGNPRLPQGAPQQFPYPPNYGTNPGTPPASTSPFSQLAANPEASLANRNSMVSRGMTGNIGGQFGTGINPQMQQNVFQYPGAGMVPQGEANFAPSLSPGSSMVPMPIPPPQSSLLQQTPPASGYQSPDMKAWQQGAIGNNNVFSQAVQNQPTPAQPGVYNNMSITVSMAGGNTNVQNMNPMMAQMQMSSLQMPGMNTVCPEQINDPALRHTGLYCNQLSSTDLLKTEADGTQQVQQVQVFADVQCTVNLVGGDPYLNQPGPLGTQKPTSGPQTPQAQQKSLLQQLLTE
Chain of Peroxisome proliferator-activated receptor gamma/Nuclear receptor coactivator 3 (P37231 whole entry): as the sequence (P37231 whole entry) above
Chain of Peroxisome proliferator-activated receptor gamma/Nuclear receptor coactivator 3 (Q9Y6Q9 whole entry, further chain): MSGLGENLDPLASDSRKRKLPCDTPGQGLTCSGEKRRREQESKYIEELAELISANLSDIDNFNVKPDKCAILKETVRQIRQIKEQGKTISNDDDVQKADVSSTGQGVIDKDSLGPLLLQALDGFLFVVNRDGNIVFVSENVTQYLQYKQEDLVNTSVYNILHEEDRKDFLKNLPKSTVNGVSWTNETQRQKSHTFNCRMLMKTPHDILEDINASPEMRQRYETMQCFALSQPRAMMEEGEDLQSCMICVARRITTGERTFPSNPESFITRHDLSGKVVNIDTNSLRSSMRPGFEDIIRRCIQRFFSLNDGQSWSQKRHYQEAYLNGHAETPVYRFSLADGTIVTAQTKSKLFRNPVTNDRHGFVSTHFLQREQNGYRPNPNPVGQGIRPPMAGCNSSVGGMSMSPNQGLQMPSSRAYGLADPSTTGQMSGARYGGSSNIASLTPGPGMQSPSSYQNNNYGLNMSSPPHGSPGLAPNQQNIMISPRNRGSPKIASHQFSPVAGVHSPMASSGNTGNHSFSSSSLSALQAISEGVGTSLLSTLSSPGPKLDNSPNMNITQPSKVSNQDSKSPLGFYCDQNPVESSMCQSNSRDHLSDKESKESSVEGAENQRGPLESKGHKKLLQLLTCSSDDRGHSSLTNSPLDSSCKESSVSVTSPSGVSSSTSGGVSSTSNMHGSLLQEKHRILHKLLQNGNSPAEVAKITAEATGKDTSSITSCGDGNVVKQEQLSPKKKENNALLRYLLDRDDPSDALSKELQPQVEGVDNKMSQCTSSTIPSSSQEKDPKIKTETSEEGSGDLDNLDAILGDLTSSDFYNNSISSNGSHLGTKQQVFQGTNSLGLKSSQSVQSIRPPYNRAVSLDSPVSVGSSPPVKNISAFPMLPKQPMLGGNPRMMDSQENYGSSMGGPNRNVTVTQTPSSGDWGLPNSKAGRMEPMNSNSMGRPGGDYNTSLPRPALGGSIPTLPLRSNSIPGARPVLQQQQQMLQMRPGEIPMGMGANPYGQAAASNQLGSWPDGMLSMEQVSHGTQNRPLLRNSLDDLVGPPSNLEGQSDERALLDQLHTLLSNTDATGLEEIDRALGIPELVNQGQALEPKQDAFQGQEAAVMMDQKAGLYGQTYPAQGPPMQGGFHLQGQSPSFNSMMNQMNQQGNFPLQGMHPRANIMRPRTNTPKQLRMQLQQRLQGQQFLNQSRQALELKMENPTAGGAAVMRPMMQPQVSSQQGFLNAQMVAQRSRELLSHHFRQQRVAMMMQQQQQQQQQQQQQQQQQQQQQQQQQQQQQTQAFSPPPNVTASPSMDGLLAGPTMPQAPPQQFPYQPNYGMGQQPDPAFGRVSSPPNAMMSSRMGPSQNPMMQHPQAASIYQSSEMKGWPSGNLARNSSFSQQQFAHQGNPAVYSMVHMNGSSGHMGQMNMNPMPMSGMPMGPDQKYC
Chain of Glucose-6-phosphate 1-dehydrogenase (P11413 whole entry): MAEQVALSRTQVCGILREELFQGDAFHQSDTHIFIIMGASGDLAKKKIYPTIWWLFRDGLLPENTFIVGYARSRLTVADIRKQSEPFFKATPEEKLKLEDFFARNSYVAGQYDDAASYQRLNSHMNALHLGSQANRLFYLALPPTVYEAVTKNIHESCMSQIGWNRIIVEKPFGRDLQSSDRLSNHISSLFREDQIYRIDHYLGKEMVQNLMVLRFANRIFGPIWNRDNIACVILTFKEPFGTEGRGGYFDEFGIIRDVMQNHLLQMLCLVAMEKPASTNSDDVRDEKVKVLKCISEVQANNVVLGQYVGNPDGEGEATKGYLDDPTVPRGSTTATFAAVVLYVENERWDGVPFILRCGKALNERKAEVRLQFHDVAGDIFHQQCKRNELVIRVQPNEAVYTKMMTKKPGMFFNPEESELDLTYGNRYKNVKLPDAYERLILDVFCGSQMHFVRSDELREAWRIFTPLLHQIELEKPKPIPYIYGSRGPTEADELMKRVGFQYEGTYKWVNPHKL
Chain of Nonstructural protein 1 (Q194T2 whole entry): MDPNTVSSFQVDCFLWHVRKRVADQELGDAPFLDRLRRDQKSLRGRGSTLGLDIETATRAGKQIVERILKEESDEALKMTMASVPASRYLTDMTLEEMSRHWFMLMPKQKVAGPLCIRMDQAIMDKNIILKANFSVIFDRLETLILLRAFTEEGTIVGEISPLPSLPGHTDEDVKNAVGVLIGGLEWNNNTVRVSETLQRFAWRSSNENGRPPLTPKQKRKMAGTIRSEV

Clc1cc(Cl)cc(Nc2nc[nH]n2)c1
CC50 [1]: 22.7 µM (active) | IC50 (Leucine aminopeptidase): 23.3 µM (active)

CCn1c(=O)cc(SCC(=O)Nc2cccnc2)c2ccccc21
EC50 [2]: > 79.4 µM (not active) | EC50 [3]: > 79.4 µM (not active) | EC50 [4]: > 79.4 µM (inactive)

CSc1nnc(NC(=O)c2ccc3c(c2)OCO3)s1
AC50 [5]: 1.86 µM (active) | AC50 [6]: 1.72 µM (active) | IC50 [7]: 22.5 µM (inactive) | AC50 [8]: > 52 µM (inactive)

CC(=O)OCCNc1cc(SCc2ccco2)c2nonc2c1[N+](=O)[O-]
EC50 [9]: 23.7 µM (active) | EC50 [10]: 17.6 µM (active) | EC50 (Protein RecA): 2.73 µM (active) | CC50 [11]: 30.1 µM (active) | IC50 (cells): 5.86 µM (active) | AC50 [12]: 8.4 µM (active)

CN(C)CCCNc1ccc(-c2cc(Nc3cccc(Cl)c3)ncn2)cn1
EC50 (BJ [13]): > 75 µM (not active) | EC50 (BJ [14]): 14.1 µM (active) | EC50 [15]: 22.6 µM (active) | AC50 [16]: 4.54 µM (active) | EC50 (BJ [17]): > 150 µM (not active)

Cc1ccc(S(=O)(=O)Nc2nncs2)cc1
IC50 (Leucine aminopeptidase): 23.2 µM (active)

CNS(=O)(=O)c1ccc(-c2ccc(C=C3C(=O)NC(=O)NC3=O)o2)cc1
IC50 [7]: 51.2 µM (inactive)

C=CCN1C=C/C(=C\C=C(C#N)C#N)c2ccccc21
IC50 (Nonstructural protein 1): 14.2 µM (active)

CCOC(=O)C1CSC(CC(=O)Nc2ccc(OCC)cc2)C(=O)N1 (centres undefined)
IC50 (Leucine aminopeptidase): 11.4 µM (active)

O=C(O)CSc1nnc(CNc2cccc(C(F)(F)F)c2)n1Cc1ccco1
IC50 (Leucine aminopeptidase): 48.8 µM (active)

Cc1ccc(NC(S)=Nc2ccc3nc(-c4ccccn4)c(-c4ccccn4)nc3c2)cc1C
IC50 [18]: 13.2 µM (active)

CCCCNC(=O)CSc1cc(=O)n(C)c2ccccc12
EC50 [2]: > 79.4 µM (not active) | EC50 [3]: > 79.4 µM (not active) | EC50 [4]: > 79.4 µM (inactive)
